Series [1] concerns maximal electroshock tonic seizure. As to the kind of experiment: Maximal electroshock test. It is filed as in vivo, mice. The settings on record: 20 mg/kg, i.p., 10 min, 50% hpbcd. An excerpt:
The anticonvulsant tests are similar to that described above.

Series [2] addresses GABA receptor complex (GRC). Nature of the series: [35S]TBPS binding in rat cerebral cortex P2 homogenate. The settings on record: for IC50: concentration to inhibit 50% of control [35S]TBPS binding, 2 nM [35S]TBPS; for IMAX (maximum inhibition): maximum inhibition of [35S]TBPS binding. In a few lines:
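Male Sprague-Dawley rat cortical P2 homogenate (0.5 mg protein) incubated with 2 nM [35S]TBPS in 50 mM Na/K phosphate pH 7.4, 200 mM NaCl, with GABA plus (+)bicuculline, 90 min at 25 °C. Filter-bound radioactivity counted; non-specific binding with […]; IC50 and maximal inhibition by nonlinear regression.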

The next series has as its system loss-of-righting reflex. Nature of the series: Anesthetic activity, loss-of-righting reflex. The settings on record: iv, 10 mg/kg. It is filed as in vivo, mice. The method, then:
The compounds of and used in the invention can also be used for anesthetic indications at high doses. However, the preferred route of administration to induce anesthesia is intravenous (i.v.) administration. In animals, a drug's anesthetic properties is measured by the drug's ability to produce a loss-of-righting reflex. The loss-of-righting reflex is defined as the inability of an animal to right itself within 30 seconds when placed on its back. Mice were administered drug i.v. in the lateral tail vein. Following administration, mice were placed on their backs and observed for loss-of-righting reflex.

For series [3], the system named is time spent on the open-arms. As to the kind of experiment: Elevated plus-maze test. The series is classed as in vivo, N.I.H. Swiss-Webster mice. The settings on record: IP, 50% hpbcd, 10 mg/kg. An excerpt:
The theoretical basis for the elevated plus-maze test is similar to that of the fight/dark transition test. As it was described previously by Pellow et al. J. Neurosci. Meth. 14:149-167 (1985)), the elevated plus-maze apparatus is designed to utilize the mice's natural aversion to open spaces. The apparatus consists of two open-arms and two enclosed-arms. The elevated plus-maze test allows for two measures of anxiety, the number of entries into the open-arms and the time spent on the open-arms, both expressed as a percentage of the total number of entries and time spent in/on both the open-arms and enclosed-arms.
Male N.I.H Swiss-Webster mice (Harlan, Indianapolis, Ind.) weighing 15-20 g were housed four per cage in polyethylene cages with sawdust bedding. The colony room was environmentally controlled (22° C.) with a 12 hr light/dark cycle (0600-1800 hr). Food and water were available ad libitum, except during testing. The experiments were run from 0700-1500 hr and groups were counterbalanced for time of day effects. Mice were only administered drug or vehicle once.
The method used was previously described (Lister, Psychopharmacol. 92:180-185 (1987)). The apparatus included two open arms perpendicular to two enclosed arms elevated 50 cm from the floor. Each arm was 50 cm long and the walls of the enclosed arms were 40 cm tall. The maze was made completely of black plexiglass. Incandescent 200 W light bulbs were above each of the open arms to produce a strong contrast between the open arms and the enclosed arms.
[…] Swiss-Webster mice were placed in the center of the plus-maze facing an open arm. During the 5 min test period, the number of entries onto the open arms and the enclosed arms, and the time spent in the open arms and enclosed arms were measured. All four paws had to be within an arm for the dependent variable to be measured. Therefore, the time spent in the center of the maze is not counted, so the total time spent in the open arms and the enclosed arms may not equal 5 min.

Series [4] relates to metrazol induced convulsions. Nature of the series: Antimetrazol activity in mice. The series is classed as in vivo. Conditions: 10 mg/kg, 50% hpbcd; for PTZ % Protected: i.p., 10 min; for % Protected: IP, 10 min before metrazol 85 mg/kg. In a few lines: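 Mice dosed with test compounds at various doses 10 minutes before metrazol (85 mg/kg) injection. Each animal observed for 30 minutes, recording time to onset of myoclonus (forelimb clonic activity).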

For the next series, the system named is punished responding. Nature of the series: Geller-Seifter conflict test. The series is classed as in vivo, Sprague-Dawley rats. An excerpt:
This animal model of human anxiety utilizes a conditioned state of conflict in rats to ascertain the anxiolytic properties of drugs. Rats are conditioned to bar press for positive reinforcement under two schedules of behavior (Geller and Seifter, Psychopharmacologia 1:482-492 (1960)). The first includes bar pressing under a […] schedule without punishment. The second component is a fixed ratio schedule with each bar press resulting in a positive reinforcement and a punishment The punished component produces a state of conflict within the animal. […] An anxiolytic response would increase the punished responding without affecting the unpunished responding.
Male albino Sprague-Dawley rats (Charles River Labs, Wilmington, Mass.) weighing 250-300 g were used for conflict experiments and were kept on a restricted diet of Purina Lab Chow food pellets with water available at all times to maintain body weight at 85% of their free-feeding young adult levels. Rats were housed individually under a 12-hour light dark cycle with lights on from 0700-1900.
The ant-anxiety (punishment-lessening) and response depressant effects of compounds of the present invention were measured in rats by the conflict test of Geller and Seifter. In this 63-min test hungry rats perform a lever-press response to obtain a sweetened milk reward. The reinforcement schedule consists of punishment and nonpunishment components, alternating approximately every 15 min. Rats were trained in test chambers (Coulbourn instruments) with a lever mounted in one wall, a small dipper that delivered the 0.1-mL milk reward (1 part Eagle condensed milk:2 parts water), and a metal grid floor through which the foot-shock punishment was administered. A DEC PDP 11/73 minicomputer running SKED (State Systems) was used for programming and recording.
Rats initially learned to respond on a continuous reinforcement schedule and progressed rapidly to 30-sec, 1-min, and 2-min variable interval (VI) schedules. On the continuous reinforcement schedule, rats received milk reward following every lever press; on the VI schedules, milk rewards were available at infrequent and variable intervals, eventually at an average of once every 2 min. Four 3-min “conflict” periods were then introduced on the unpunished VI baseline; the first started after 3 min of VI performance and the others were alternated between 12-min periods of VI responding. During conflict periods, which were signalled by the presentation of a light and a tone, the continuous reinforcement schedule was again in force and each lever press delivered both a milk reward and a brief […] foot-shock punishment. […]

For series [5] the following is noted: data from Swinyard & Woodhead 1982; cited from earlier work.

Marks after values point to notes of the source that are not given here.

The source of these data is US6780853B1, “Neuroactive steroids of the androstane and pregnane series” (priority 1995, dated 2004).

For the compound `C#C[C@@]1(O)CC[C@@]2(C)[C@H](CC[C@@H]3[C@@H]2CC[C@]2(C)[C@@H](OC)CC[C@@H]32)C1` [3β-ethynyl-3α-hydroxy-17β-methoxy-5β-androstane], in series [1], the “MES % Protected” value was 31.2^b %. In series [2], the IC50 is 49 nM and the “IMAX (maximum inhibition)” value is given as 101%. Moreover, in the series on loss-of-righting reflex (50% hpbcd), the “Loss-of-Righting Reflex (%)” value amounted to 50%. In addition, the “Plus-Maze (% Control), time spent on the open-arms” value (shortened to “Plus-Maze (% Control), time spent”) in series [3] was 123 % Control. Further, in series [4], the “PTZ % Protected” value was 50^c % and the “% Protected” value amounted to 50%.
`CO[C@H]1CC[C@H]2[C@@H]3CC[C@@H]4C[C@H](O)CC[C@]4(C)[C@H]3CC[C@]12C` [3α-Hydroxy-17β-methoxy-5β-androstane] returned a melting point of 151 to 156 °C. In series [1], the “MES % Protected” value is listed as 87.5^b %. In addition, in series [2], the IC50 stood at 62 nM and the “IMAX (maximum inhibition)” value worked out at 106%. The “Plus-Maze (% Control), time spent” value in series [3] was 115 % Control. Further, in series [4], the “PTZ % Protected” value was 87.5^c %.
Consider `COCC1(O)CCC2(C)C(CCC3C2CCC2(C)C(C(=O)CSS(=O)(=O)[O-])CCC32)C1.[Na+]` (stereo not drawn) [Sodium S-(3α-hydroxy-3β-methoxymethyl-5α-pregnan-20-on-21-yl)thiosulfate], for which, in the series with punished responding (PO, water, 32 mg/kg), the “Geller/Seifter (% or control)” value is on record as 4487.5 % or control.
As to `COC[C@@]1(O)CC[C@@]2(C)[C@@H](CC[C@@H]3[C@@H]2CC[C@]2(C)[C@@H](C(C)=O)CC[C@@H]32)C1` [3α-Hydroxy-3β-methoxymethyl-5α-pregnan-20-one], the “Geller/Seifter (% or control)” value with punished responding (IP, 50% hpbcd, 10 mg/kg) is reported as 958 % or control.
As for `COCC1(O)CCC2(C)C(CCC3C2CCC2(C)C(OC)CCC32)C1` (stereo not drawn) [3α-Hydroxy-17β-methoxy-3β-methoxymethyl-5α-androstane], in series [1], the “MES % Protected” value is 18.7^b %. Also, in series [2], the IC50 was determined as 64 nM and the “IMAX (maximum inhibition)” value is reported as 100%. For the same compound, in the series on loss-of-righting reflex (10% hpbcd), the “Loss-of-Righting Reflex (%)” value was 50%. The “Plus-Maze (% Control), time spent” value in series [3] is 130 % Control. Also, in series [4], the “PTZ % Protected” value is 87.5^c % and the “% Protected” value stood at 87.5%.
`CCOC[C@@]1(O)CC[C@@]2(C)[C@@H](CC[C@@H]3[C@@H]2CC[C@]2(C)[C@@H](C(C)=O)CC[C@@H]32)C1` [3α-Hydroxy-3β-ethoxymethyl-5α-pregnan-20-one]: in the series on punished responding (IP, 50% hpbcd, 40 mg/kg), the “Geller/Seifter (% or control)” value is 3743 % or control.
In the case of `CC(=O)C1CCC2C3CCC4CC(O)(C(F)(F)F)CCC4(C)C3C(N(C)C)CC12C` (stereo not drawn) [11α-N,N-Dimethylamino-3α-hydroxy-3β-trifluoromethyl-5β-pregnan-20-one], the “Geller/Seifter (% or control)” value with punished responding (IP, citrate, 20 mg/kg) was 145 % or control.
Compound `COC1CCC2C3CCC4CC(O)(C#Cc5ccc(C(C)=O)cc5)CCC4C3CCC12C` (stereo not drawn) [3β-(4′-Acetylphenylethynyl)-3α-hydroxy-17β-methoxy-19-nor-5β-androstane] showed a melting point of 148 to 150 °C. For the same compound, the “MES % Protected” value in series [1] is 25^b %. In addition, in series [2], the IC50 turned out to be 8 nM and the “IMAX (maximum inhibition)” value came out at 96%. Moreover, in series [3], the “Plus-Maze (% Control), time spent” value worked out at 156 % Control. In series [4], the “PTZ % Protected” value was 12.5^c % and the “% Protected” value is 31%.
Take `CCCC(CCC)C(=O)O` [Valproate]: in series [5], the “ED50 RR” value was 514 mg/kg.
As to `CCC1(c2ccccc2)C(=O)NC(=O)NC1=O` [Phenobarbital], the “ED50 RR” value in series [5] is 69 mg/kg.
